Experimental data as given in the supplement of paper PMC10307832.

Key:
Assay in all cases: relative viability (nuclei count vs DMSO), 5 days (fraction); higher = more cells survive
Pemetrexed + Olaparib = compound: Nc1nc2[nH]cc(CCc3ccc(C(=O)N[C@@H](CCC(=O)O)C(=O)O)cc3)c2c(=O)[nH]1 [Pemetrexed] + O=C(c1cc(Cc2n[nH]c(=O)c3ccccc23)ccc1F)N1CCN(C(=O)C2CC2)CC1 [Olaparib] (partner 8 µM)
How it was run: (§1)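 Medians of duplicate plates are given as relative viability. That measure is the nuclei count in treated wells divided by the count in vehicle wells. Counts were taken on 4× images of lung cancer cell lines in 1536-well plates, 5 days after pin-tool dosing the day after seeding with one drug alone or a fixed anchor-drug dose plus five library-drug doses (not always all listed) in √10 steps.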

Pemetrexed + Luminespib = compound: Nc1nc2[nH]cc(CCc3ccc(C(=O)N[C@@H](CCC(=O)O)C(=O)O)cc3)c2c(=O)[nH]1 [Pemetrexed] + CCNC(=O)c1noc(-c2cc(C(C)C)c(O)cc2O)c1-c1ccc(CN2CCOCC2)cc1 [Luminespib] (partner 0.01 µM)
How it was run: as §1

Idelalisib + Vorinostat = compound: CC[C@H](Nc1ncnc2[nH]cnc12)c1nc2cccc(F)c2c(=O)n1-c1ccccc1 [Idelalisib] + O=C(CCCCCCC(=O)Nc1ccccc1)NO [Vorinostat] (partner 1 µM)
How it was run: as §1

Idelalisib + OSI-027 = compound: CC[C@H](Nc1ncnc2[nH]cnc12)c1nc2cccc(F)c2c(=O)n1-c1ccccc1 [Idelalisib] + COc1cccc2cc(-c3nc([C@H]4CC[C@H](C(=O)O)CC4)n4ncnc(N)c34)[nH]c12 [OSI-027] (partner 0.5 µM)
How it was run: as §1

ABC-1
relative viability (Pemetrexed + Olaparib; first compound 0.002 µM): 0.839 | relative viability (Pemetrexed + Olaparib; first compound 0.006325 µM): 0.867 | relative viability (Pemetrexed + Olaparib; first compound 0.02 µM): 0.985 | relative viability (Pemetrexed + Olaparib; first compound 0.06325 µM): 0.875 | relative viability (Pemetrexed + Olaparib; first compound 0.2 µM): 0.865 | relative viability (Pemetrexed + Luminespib; first compound 0.006325 µM): 0.521 | relative viability (Pemetrexed + Luminespib; first compound 0.02 µM): 0.709 | relative viability (Pemetrexed + Luminespib; first compound 0.06325 µM): 0.777 | relative viability (Pemetrexed + Luminespib; first compound 0.2 µM): 0.637 | relative viability (Idelalisib + Vorinostat; first compound 0.04 µM): 1.01 | relative viability (Idelalisib + Vorinostat; first compound 0.1265 µM): 1.13 | relative viability (Idelalisib + Vorinostat; first compound 0.4 µM): 0.751 | relative viability (Idelalisib + Vorinostat; first compound 1.265 µM): 1.03 | relative viability (Idelalisib + Vorinostat; first compound 4 µM): 1.39 | relative viability (Idelalisib + OSI-027; first compound 0.04 µM): 0.491 | relative viability (Idelalisib + OSI-027; first compound 0.1265 µM): 0.495 | relative viability (Idelalisib + OSI-027; first compound 0.4 µM): 0.43 | relative viability (Idelalisib + OSI-027; first compound 1.265 µM): 0.577 | relative viability (Idelalisib + OSI-027; first compound 4 µM): 0.409

HCC-44
relative viability (Pemetrexed + Olaparib; first compound 0.002 µM): 0.97 | relative viability (Pemetrexed + Olaparib; first compound 0.006325 µM): 0.952 | relative viability (Pemetrexed + Olaparib; first compound 0.02 µM): 0.987 | relative viability (Pemetrexed + Olaparib; first compound 0.06325 µM): 0.964 | relative viability (Pemetrexed + Olaparib; first compound 0.2 µM): 0.909 | relative viability (Pemetrexed + Luminespib; first compound 0.002 µM): 1.08 | relative viability (Pemetrexed + Luminespib; first compound 0.006325 µM): 1.03 | relative viability (Pemetrexed + Luminespib; first compound 0.02 µM): 1.09 | relative viability (Pemetrexed + Luminespib; first compound 0.06325 µM): 0.918 | relative viability (Pemetrexed + Luminespib; first compound 0.2 µM): 0.666 | relative viability (Idelalisib + Vorinostat; first compound 0.04 µM): 1.19 | relative viability (Idelalisib + Vorinostat; first compound 0.1265 µM): 1.08 | relative viability (Idelalisib + Vorinostat; first compound 0.4 µM): 1.12 | relative viability (Idelalisib + Vorinostat; first compound 1.265 µM): 1.22 | relative viability (Idelalisib + Vorinostat; first compound 4 µM): 1.12 | relative viability (Idelalisib + OSI-027; first compound 0.04 µM): 0.474 | relative viability (Idelalisib + OSI-027; first compound 0.1265 µM): 0.54 | relative viability (Idelalisib + OSI-027; first compound 0.4 µM): 0.437 | relative viability (Idelalisib + OSI-027; first compound 1.265 µM): 0.604 | relative viability (Idelalisib + OSI-027; first compound 4 µM): 0.5

HCC-78
relative viability (Pemetrexed + Olaparib; first compound 0.006325 µM): 0.792 | relative viability (Pemetrexed + Olaparib; first compound 0.02 µM): 0.662 | relative viability (Pemetrexed + Olaparib; first compound 0.06325 µM): 0.29 | relative viability (Pemetrexed + Olaparib; first compound 0.2 µM): 0.233 | relative viability (Idelalisib + Vorinostat; first compound 0.04 µM): 0.462 | relative viability (Idelalisib + Vorinostat; first compound 0.1265 µM): 0.448 | relative viability (Idelalisib + Vorinostat; first compound 0.4 µM): 0.393 | relative viability (Idelalisib + Vorinostat; first compound 1.265 µM): 0.468 | relative viability (Idelalisib + Vorinostat; first compound 4 µM): 0.332 | relative viability (Idelalisib + OSI-027; first compound 0.04 µM): 0.413 | relative viability (Idelalisib + OSI-027; first compound 0.1265 µM): 0.364 | relative viability (Idelalisib + OSI-027; first compound 0.4 µM): 0.324 | relative viability (Idelalisib + OSI-027; first compound 1.265 µM): 0.36 | relative viability (Idelalisib + OSI-027; first compound 4 µM): 0.293

LXF-289
relative viability (Pemetrexed + Olaparib; first compound 0.002 µM): 1.07 | relative viability (Pemetrexed + Olaparib; first compound 0.006325 µM): 1.04 | relative viability (Pemetrexed + Olaparib; first compound 0.02 µM): 1.1 | relative viability (Pemetrexed + Olaparib; first compound 0.06325 µM): 1.03 | relative viability (Pemetrexed + Olaparib; first compound 0.2 µM): 0.976 | relative viability (Pemetrexed + Luminespib; first compound 0.002 µM): 0.687 | relative viability (Pemetrexed + Luminespib; first compound 0.006325 µM): 0.648 | relative viability (Pemetrexed + Luminespib; first compound 0.02 µM): 0.731 | relative viability (Pemetrexed + Luminespib; first compound 0.06325 µM): 0.639 | relative viability (Pemetrexed + Luminespib; first compound 0.2 µM): 0.651 | relative viability (Idelalisib + Vorinostat; first compound 0.04 µM): 0.878 | relative viability (Idelalisib + Vorinostat; first compound 0.1265 µM): 0.759 | relative viability (Idelalisib + Vorinostat; first compound 0.4 µM): 0.781 | relative viability (Idelalisib + Vorinostat; first compound 1.265 µM): 0.783 | relative viability (Idelalisib + Vorinostat; first compound 4 µM): 0.764 | relative viability (Idelalisib + OSI-027; first compound 0.04 µM): 0.879 | relative viability (Idelalisib + OSI-027; first compound 0.1265 µM): 0.782 | relative viability (Idelalisib + OSI-027; first compound 0.4 µM): 0.632 | relative viability (Idelalisib + OSI-027; first compound 1.265 µM): 0.813 | relative viability (Idelalisib + OSI-027; first compound 4 µM): 0.764

201T
relative viability (Pemetrexed + Olaparib; first compound 0.002 µM): 0.791 | relative viability (Pemetrexed + Olaparib; first compound 0.006325 µM): 0.85 | relative viability (Pemetrexed + Olaparib; first compound 0.02 µM): 0.841 | relative viability (Pemetrexed + Olaparib; first compound 0.06325 µM): 0.878 | relative viability (Pemetrexed + Olaparib; first compound 0.2 µM): 0.839 | relative viability (Pemetrexed + Luminespib; first compound 0.002 µM): 1.03 | relative viability (Pemetrexed + Luminespib; first compound 0.006325 µM): 1.04 | relative viability (Pemetrexed + Luminespib; first compound 0.02 µM): 1.05 | relative viability (Pemetrexed + Luminespib; first compound 0.06325 µM): 1.1 | relative viability (Pemetrexed + Luminespib; first compound 0.2 µM): 1.09 | relative viability (Idelalisib + Vorinostat; first compound 0.04 µM): 1.01 | relative viability (Idelalisib + Vorinostat; first compound 0.1265 µM): 0.982 | relative viability (Idelalisib + Vorinostat; first compound 0.4 µM): 0.874 | relative viability (Idelalisib + Vorinostat; first compound 1.265 µM): 0.997 | relative viability (Idelalisib + Vorinostat; first compound 4 µM): 0.755 | relative viability (Idelalisib + OSI-027; first compound 0.04 µM): 0.812 | relative viability (Idelalisib + OSI-027; first compound 0.1265 µM): 0.736 | relative viability (Idelalisib + OSI-027; first compound 0.4 µM): 0.548 | relative viability (Idelalisib + OSI-027; first compound 1.265 µM): 0.67 | relative viability (Idelalisib + OSI-027; first compound 4 µM): 0.679

NCI-H1734
relative viability (Pemetrexed + Olaparib; first compound 0.002 µM): 0.576 | relative viability (Pemetrexed + Olaparib; first compound 0.006325 µM): 0.615 | relative viability (Pemetrexed + Olaparib; first compound 0.02 µM): 0.741 | relative viability (Pemetrexed + Olaparib; first compound 0.06325 µM): 0.619 | relative viability (Pemetrexed + Olaparib; first compound 0.2 µM): 0.601 | relative viability (Pemetrexed + Luminespib; first compound 0.002 µM): 0.208 | relative viability (Pemetrexed + Luminespib; first compound 0.006325 µM): 0.192 | relative viability (Pemetrexed + Luminespib; first compound 0.02 µM): 0.219 | relative viability (Pemetrexed + Luminespib; first compound 0.06325 µM): 0.206 | relative viability (Pemetrexed + Luminespib; first compound 0.2 µM): 0.218 | relative viability (Idelalisib + Vorinostat; first compound 0.04 µM): 0.914 | relative viability (Idelalisib + Vorinostat; first compound 0.1265 µM): 0.846 | relative viability (Idelalisib + Vorinostat; first compound 0.4 µM): 0.627 | relative viability (Idelalisib + Vorinostat; first compound 1.265 µM): 0.642 | relative viability (Idelalisib + Vorinostat; first compound 4 µM): 0.755 | relative viability (Idelalisib + OSI-027; first compound 0.04 µM): 0.659 | relative viability (Idelalisib + OSI-027; first compound 0.1265 µM): 0.593 | relative viability (Idelalisib + OSI-027; first compound 0.4 µM): 0.404 | relative viability (Idelalisib + OSI-027; first compound 1.265 µM): 0.579 | relative viability (Idelalisib + OSI-027; first compound 4 µM): 0.537

NCI-H1623
relative viability (Pemetrexed + Luminespib; first compound 0.002 µM): 0.628 | relative viability (Pemetrexed + Luminespib; first compound 0.006325 µM): 0.325 | relative viability (Pemetrexed + Luminespib; first compound 0.02 µM): 0.503 | relative viability (Pemetrexed + Luminespib; first compound 0.06325 µM): 0.443 | relative viability (Pemetrexed + Luminespib; first compound 0.2 µM): 0.613 | relative viability (Idelalisib + OSI-027; first compound 0.04 µM): 0.409 | relative viability (Idelalisib + OSI-027; first compound 0.1265 µM): 0.463 | relative viability (Idelalisib + OSI-027; first compound 0.4 µM): 0.45 | relative viability (Idelalisib + OSI-027; first compound 1.265 µM): 0.402 | relative viability (Idelalisib + OSI-027; first compound 4 µM): 0.386

NCI-H2126
relative viability (Pemetrexed + Olaparib; first compound 0.002 µM): 0.861 | relative viability (Pemetrexed + Olaparib; first compound 0.006325 µM): 0.965 | relative viability (Pemetrexed + Olaparib; first compound 0.02 µM): 0.886 | relative viability (Pemetrexed + Olaparib; first compound 0.06325 µM): 0.889 | relative viability (Pemetrexed + Olaparib; first compound 0.2 µM): 0.777 | relative viability (Pemetrexed + Luminespib; first compound 0.002 µM): 0.827 | relative viability (Pemetrexed + Luminespib; first compound 0.006325 µM): 0.96 | relative viability (Pemetrexed + Luminespib; first compound 0.02 µM): 0.89 | relative viability (Pemetrexed + Luminespib; first compound 0.06325 µM): 0.883 | relative viability (Pemetrexed + Luminespib; first compound 0.2 µM): 0.831 | relative viability (Idelalisib + Vorinostat; first compound 0.04 µM): 0.932 | relative viability (Idelalisib + Vorinostat; first compound 0.1265 µM): 0.865 | relative viability (Idelalisib + Vorinostat; first compound 0.4 µM): 0.464 | relative viability (Idelalisib + Vorinostat; first compound 1.265 µM): 0.861 | relative viability (Idelalisib + Vorinostat; first compound 4 µM): 0.671 | relative viability (Idelalisib + OSI-027; first compound 0.04 µM): 0.67 | relative viability (Idelalisib + OSI-027; first compound 0.1265 µM): 0.678 | relative viability (Idelalisib + OSI-027; first compound 0.4 µM): 0.462 | relative viability (Idelalisib + OSI-027; first compound 1.265 µM): 0.732 | relative viability (Idelalisib + OSI-027; first compound 4 µM): 0.704

LOU-NH91
relative viability (Pemetrexed + Olaparib; first compound 0.002 µM): 0.864 | relative viability (Pemetrexed + Olaparib; first compound 0.006325 µM): 0.886 | relative viability (Pemetrexed + Olaparib; first compound 0.02 µM): 0.93 | relative viability (Pemetrexed + Olaparib; first compound 0.06325 µM): 0.819 | relative viability (Pemetrexed + Olaparib; first compound 0.2 µM): 0.455 | relative viability (Pemetrexed + Luminespib; first compound 0.002 µM): 0.399 | relative viability (Pemetrexed + Luminespib; first compound 0.006325 µM): 0.318 | relative viability (Pemetrexed + Luminespib; first compound 0.02 µM): 0.374 | relative viability (Pemetrexed + Luminespib; first compound 0.06325 µM): 0.298 | relative viability (Pemetrexed + Luminespib; first compound 0.2 µM): 0.315 | relative viability (Idelalisib + Vorinostat; first compound 0.04 µM): 0.998 | relative viability (Idelalisib + Vorinostat; first compound 0.1265 µM): 0.899 | relative viability (Idelalisib + Vorinostat; first compound 0.4 µM): 0.794 | relative viability (Idelalisib + Vorinostat; first compound 1.265 µM): 0.726 | relative viability (Idelalisib + Vorinostat; first compound 4 µM): 0.91 | relative viability (Idelalisib + OSI-027; first compound 0.04 µM): 0.776 | relative viability (Idelalisib + OSI-027; first compound 0.1265 µM): 0.732 | relative viability (Idelalisib + OSI-027; first compound 0.4 µM): 0.687 | relative viability (Idelalisib + OSI-027; first compound 1.265 µM): 0.517 | relative viability (Idelalisib + OSI-027; first compound 4 µM): 0.708
